Entries after “also recorded” stand apart in the source; their conditions may differ. Read-outs that look alike come from different tables or passages of the source.
Key:
[1] = test system: peripheral blood lymphocytes (PBL); assay: PBL growth driven by antibody/cytokine stimulation; type: cell-based, human
Ramos cells = assay: Anti-phosphotyrosine western blot of cell lysates; type: cell-based, human
[2] = test system: murine B cell lymphoma A20 cells; assay: Anti-phosphotyrosine immunoblot; type: cell-based; settings: 16 hr
Syk tyrosine kinase = assay: Syk tyrosine phosphorylation (anti-Syk immunoprecipitate, anti-phosphotyrosine blot) in Ramos B cells; type: cell-based, human; settings: 16 hours, no antigen receptor stimulation
Procedure: BMLOV is known to inhibit Src-family tyrosine kinases. […] Ramos B cells were treated with the indicated concentrations of BMLOV or pV(phen) for 16 hours. The cells were then lysed and the Syk tyrosine kinase was immunoprecipitated with anti-Syk antibodies. The tyrosine phosphorylation of Syk was examined by an anti-phosphotyrosine Western blot of the immunoprecipitated Syk protein following SDS-polyacrylamide gel electrophoresis (shown at left). The amount of Syk protein recovered was determined by anti-Syk Western blotting of identical samples (shown at right).
In the experiments shown in FIG. 23, cells were treated 16 h with BMLOV and then stimulated with α-μ for 5 min. Cells were then washed and resuspended in fresh media at equal concentrations of BMLOV at 37° C. Cells were harvested and lysted at times following the initiation of α-μ stimulation as indicated. Antibody binding in immunoblots was detected by ECL.

Ramos = assay: [3H]thymidine incorporation assay; type: cell-based, human; settings: for [3H]cpm incorporation: seven days
Procedure: (§1) For each cell type, the cells were passaged uniformly for all drug doses given during the seven-day period. The cells were then pulsed for six hours with [^3 H]thymidine. The extent of DNA synthesis was then determined by counting the radioactivity incorporated into the cells.
(§2) For assays of cellular proliferation, cells were grown five days in the presence of the indicated concentrations of BMLOV, pulsed 6 hr with [^3 H]-thymidine (New England Nuclear, Boston, Mass.), and counted in a liquid scintillation counter. Human peripheral blood lymphocytes (PBL) from normal volunteers were isolated from lymphocyte separation medium (Litton Bionetics, Kensington, Md.) by density gradient centrifugation. Monocytes were depleted from PBL by two rounds of plastic absorption for 30 minutes at 37° C. B cells were enriched for by negative selection using complement plus monoclonal antibodies to CD2, CD3, CD4, and CD8 for complement depletion. Clonogenic assays of colony formation in methylcellulose medium were performed as previously described (F. M. Uckun et al. (1992), supra).
The effect of the variation of treatment time with pV(phen) on the inhibition of proliferation in Ramos cells is shown in Table 11. These cells were grown in pV(phen) for the indicated times, washed, and then grown in fresh media for the balance of the 5-day assay. These cells were pulsed with [^3 H]-thymidine on day 5.

THP-1 = assay: [3H]thymidine incorporation assay; type: cell-based, human; settings: for [3H]cpm incorporation: seven days
Procedure: as §1, §2

CEM [3] = assay: [3H]thymidine incorporation assay; type: cell-based, human; settings: for [3H]cpm incorporation: seven days
Procedure: as §1, §2

Jurkat [4] = assay: [3H]thymidine incorporation assay; type: cell-based, human; settings: for [3H]cpm incorporation: seven days
Procedure: as §1, §2

HL-60 = assay: [3H]thymidine incorporation assay; type: cell-based, human; settings: for [3H]cpm incorporation: seven days
Procedure: as §1, §2

Jurkat [5] = assay: Anti-phosphotyrosine immunoblot; type: cell-based, human
CEM [6] = type: cell-based, human
Source text: The extent to which the T cells were being killed by BMLOV treatment relative to the Ramos B cells was therefore examined. […] The percentage of cells in each quadrant is indicated. The lower right quadrant contains the viable cells.

A20 = assay: [3H]thymidine incorporation assay; type: cell-based, murine; settings: for [3H]cpm incorporation: seven days; for [3H]-thymidine radioactivity incorporated: 5 days
Procedure: as §1, §2
The cell lines A20, 70Z-3, L1210, and P388D were used. A20 is a B cell lymphoma cell line; 70Z/3 is a B cell leukemia cell line; L1210 is a T cell leukemia cell line; and P388D is a myeloid leukemia cell line. The cells were grown for 5 days in the presence of pV(phen) and pulsed with [^3 H]-thymidine on day 5. The extent of DNA synthesis was then determined by counting the radioactivity incorporated into the cells, as in Example 5, supra. […] The effects on L1210 cells and P388D cells are particularly noteworthy because these cell lines have been extensively used by the National Cancer Institute to identify anti-cancer drugs.

[7] = test system: i.p. M109 murine lung carcinoma; assay: In vivo antitumor test, M109; settings: for Max. % T/C: qd 1→5, ip
Procedure: The compound pV(phen) was tested for its antitumor activity in vivo. A summary of the antitumor test results is shown below in Table 13. In the i.p. M109 murine lung carcinoma model (Experiment No. 330; Table 13), consecutive daily i.p. injections each day from day 1 to 5 were effective in achieving an active result. […] A maximum T/C of 143%, consistent with the first result, was obtained.

[8] = test system: subcutaneously implanted human ovarian carcinoma, A2780; assay: In vivo antitumor test, A2780
Procedure: Finally, pV(phen) was tested against subcutaneously implanted human ovarian carcinoma, A2780, in Experiment No. 54, using a treatment schedule of once daily for 9 days. Treatments (i.p.) were begun on day 10 post implant when the tumors were small but definite, e.g. […]

[9] = Expt. 54, OD 12 mg/kg/inj, qdx9;10, ip

Cc1occc(=O)c1[O-].Cc1occc(=O)c1[O-].[O]=[V+2] [BMLOV, Bis(maltolato)oxovanadium (IV)]
PBL growth driven by anti-CD28 antibody plus IL-2 ([1]; 1 μM BMLOV): markedly inhibited | PBL growth driven by anti-CD3 antibody plus anti-CD28 antibody ([1]; 10 μM BMLOV): strongly inhibited | level of tyrosine phosphorylation (Ramos cells; 50 μM BMLOV, 16 hours): high levels of tyrosine phosphorylation | time at which tyrosine phosphorylation begins (Ramos cells; 100 μM BMLOV): ≤ 8 min | induction of tyrosine phosphorylation compared with sodium orthovanadate (Ramos cells; 100 μM each, 30 min): more potent than orthovanadate | induction of cellular tyrosine phosphorylation (Ramos cells; Ramos B cells, varying doses, 1 hour or 16 h): induces tyrosine phosphorylation in a dose-dependent manner; also recorded: dose-dependent induction of tyrosine phosphorylation | tyrosine phosphorylation response to sIg crosslinking (Ramos cells; particularly at early time points): enhanced the tyrosine phosphorylation response | induction of tyrosine phosphorylation [2]: highly responsive | tyrosine phosphorylation of Syk (Syk tyrosine kinase): only very slight tyrosine phosphorylation of Syk; also recorded: induced tyrosine phosphorylation of Syk in a dose-dependent manner | [3H]cpm incorporation (Ramos; 1 μM BMLOV): 289936 cpm | [3H]cpm incorporation (Ramos; 5 μM BMLOV): 65545 cpm | [3H]cpm incorporation (Ramos; 10 μM BMLOV): 167 cpm | [3H]cpm incorporation (Ramos; 25 μM BMLOV): 149 cpm | sensitivity of proliferation to BMLOV, in words (Ramos; 10 and 25 μM, 5 or 7 days): highly sensitive | [3H]cpm incorporation (THP-1; 1 μM BMLOV): 201670 cpm | [3H]cpm incorporation (THP-1; 5 μM BMLOV): 178290 cpm | [3H]cpm incorporation (THP-1; 10 μM BMLOV): 199993 cpm | [3H]cpm incorporation (THP-1; 25 μM BMLOV): 112209 cpm | sensitivity of proliferation to BMLOV, in words (THP-1; 25 μM, 5 or 7 days): only partial sensitivity; also recorded: showed an inhibition of growth | [3H]cpm incorporation (CEM [3]; 1 μM BMLOV): 368721 cpm | [3H]cpm incorporation (CEM [3]; 5 μM BMLOV): 403576 cpm | [3H]cpm incorporation (CEM [3]; 10 μM BMLOV): 371256 cpm | [3H]cpm incorporation (CEM [3]; 25 μM BMLOV): 313714 cpm | sensitivity of proliferation to BMLOV, in words (CEM [3]; 25 μM, 5 or 7 days): resistant; also recorded: only small effects | [3H]cpm incorporation (Jurkat [4]; 1 μM BMLOV): 149950 cpm | [3H]cpm incorporation (Jurkat [4]; 5 μM BMLOV): 118720 cpm | [3H]cpm incorporation (Jurkat [4]; 10 μM BMLOV): 98057 cpm | [3H]cpm incorporation (Jurkat [4]; 25 μM BMLOV): 26511 cpm | sensitivity of proliferation to BMLOV, in words (Jurkat [4]; 25 μM, 5 or 7 days): moderately sensitive; also recorded: substantially inhibited | [3H]cpm incorporation (HL-60; 1 μM BMLOV): 191637 cpm | [3H]cpm incorporation (HL-60; 5 μM BMLOV): 276505 cpm | [3H]cpm incorporation (HL-60; 10 μM BMLOV): 222178 cpm | [3H]cpm incorporation (HL-60; 25 μM BMLOV): 11398 cpm | sensitivity of proliferation to BMLOV, in words (HL-60; 25 μM, 5 or 7 days): moderately sensitive; also recorded: showed an inhibition of growth | induction of tyrosine phosphorylation (Jurkat [5]; 16 hr): only low levels of tyrosine phosphorylation | killing by BMLOV, in words (CEM [6]; CEM, 25 μM BMLOV, 4 days): resistant to killing | [3H]cpm incorporation (A20; 1 μM BMLOV): 419947 cpm | [3H]cpm incorporation (A20; 5 μM BMLOV): 289932 cpm | [3H]cpm incorporation (A20; 10 μM BMLOV): 66157 cpm | [3H]cpm incorporation (A20; 25 μM BMLOV): 281 cpm | sensitivity of proliferation to BMLOV, in words (A20; 25 μM, 5 or 7 days): very sensitive; also recorded: highly sensitive

[Na+].[O]=[V-]12([O][O]1)[O][O]2.c1cnc2c(c1)ccc1cccnc12 [pV(phen), sodium (1,10-phenanthroline) oxodiperoxovanadium (V)]
proteins tyrosine phosphorylated, compared with BMLOV (Ramos cells; 16 hours, particularly at 10 μM): causes the tyrosine phosphorylation of a significantly larger group of proteins than does BMLOV | induction of tyrosine phosphorylation by pV(phen) (Ramos cells; Ramos B cells, 16 hours): high level of tyrosine phosphorylation | tyrosine phosphorylation of Syk (Syk tyrosine kinase): strongly induces tyrosine phosphorylation of the Syk tyrosine kinase | Max. % T/C ([7]; Expt. 330, 12 mg/kg/inj): 144% | Max. % T/C ([7]; Expt. 333, 12 mg/kg/inj (MTD reached)): 143% | cumulative MTD ([7]; last M109 experiment): 60 mg/kg | [3H] Thymidine Incorporation (Ramos; 1 μM pV(phen) for 4 hr, then fresh media to day 5): 540438 ± 86014 cpm | [3H] Thymidine Incorporation (Ramos; 1 μM pV(phen) for 8 hr, then fresh media to day 5): 444806 ± 20361 cpm | [3H] Thymidine Incorporation (Ramos; 1 μM pV(phen) for 24 hr, then fresh media to day 5): 396533 ± 16116 cpm | [3H] Thymidine Incorporation (Ramos; 1 μM pV(phen) for 5 d): 1969 ± 1295 cpm | inhibition of proliferation (Ramos; 1 μM pV(phen), full 5-day treatment): ≥ 99% | [3H] Thymidine Incorporation (Ramos; 5 μM pV(phen) for 4 hr, then fresh media to day 5): 502956 ± 20963 cpm | [3H] Thymidine Incorporation (Ramos; 5 μM pV(phen) for 8 hr, then fresh media to day 5): 351849 ± 7357 cpm | [3H] Thymidine Incorporation (Ramos; 5 μM pV(phen) for 24 hr, then fresh media to day 5): 312 ± 83 cpm | [3H] Thymidine Incorporation (Ramos; 5 μM pV(phen) for 5 d): 615 ± 268 cpm | [3H] Thymidine Incorporation (Ramos; 10 μM pV(phen) for 4 hr, then fresh media to day 5): 554511 ± 10077 cpm | [3H] Thymidine Incorporation (Ramos; 10 μM pV(phen) for 8 hr, then fresh media to day 5): 185021 ± 11112 cpm | [3H] Thymidine Incorporation (Ramos; 10 μM pV(phen) for 24 hr, then fresh media to day 5): 1862 ± 1461 cpm | [3H] Thymidine Incorporation (Ramos; 10 μM pV(phen) for 5 d): 982 ± 519 cpm | [3H] Thymidine Incorporation (Ramos; 25 μM pV(phen) for 4 hr, then fresh media to day 5): 433034 ± 74272 cpm | [3H] Thymidine Incorporation (Ramos; 25 μM pV(phen) for 8 hr, then fresh media to day 5): 877 ± 93 cpm | [3H] Thymidine Incorporation (Ramos; 25 μM pV(phen) for 24 hr, then fresh media to day 5): 399 ± 231 cpm | [3H] Thymidine Incorporation (Ramos; 25 μM pV(phen) for 5 d): 651 ± 295 cpm | LCK (log cell kill) [8, 9]: 0.4 | T-C (delay in primary tumor growth) [8, 9]: 4.0 days | MTD ([8]; once daily for 9 days, i.p., cumulative dose of 45 mg/kg): 5 mg/kg per injection | induction of tyrosine phosphorylation by pV(phen) (Jurkat [5]; Jurkat T cells, 16 hours): high level of tyrosine phosphorylation | cells killed (CEM [6]; CEM, 10 μM pV(phen), three days): all the cells | cells killed (CEM [6]; human, cem cells, 48 h, 10 µM): 98% | [3H]-thymidine radioactivity incorporated (A20; 5 μM pV(phen)): 73 ± 23 | [3H]-thymidine radioactivity incorporated (A20; 10 μM pV(phen)): 76 ± 48

Reference: patent US5877210A, “Phosphotyrosine phosphatase inhibitors or phosphotyrosine kinase activators for controlling cellular proliferation” (priority 1995, dated 1999)
